Test system: T. harzianum strain T-22
Experiment: Effect of chemical seed treatments on subsequent root colonization by T-22
Type: in vivo, Trichoderma harzianum
Conditions: full rates of chemical seed treatment
Description: In nearly all cases, the best results in direct-seeded field crops are obtained with an integration of chemical seed treatments and the deep root developing agents. […] This resistance permits the use of both the biological root colonizing agent and chemical seed protectants.

SMILES	prevention of subsequent root colonization by T-22
CC(C)(C)C(O)(CCc1ccc(Cl)cc1)Cn1cncn1 (centres unmarked) [tebuconazole]	exceptions
CN(C)C(=S)SSC(=S)N(C)C [thiram]	exceptions
